Experimental data: ChEMBL document CHEMBL1671851, “Population pharmacokinetics of rifampin in pulmonary tuberculosis patients, including a semimechanistic model to describe variable absorption” (Antimicrob Agents Chemother, 2008)

Columns and labels:
Homo sapiens [1] = organism: Homo sapiens; assay: Mean transient time in pulmonary tuberculosis patient in transit compartment model; format: ADME, organism-based; settings: in vivo
Homo sapiens [2] = assay: AUC (0 to 12 hrs) in kenyan pulmonary tuberculosis patient coinjected with HIV with body weight >45 kg at 600 mg/day, po; format: ADME, organism-based, Plasma; parameters: time < 12 hr, dose 600 mg/day, route oral; settings: in vivo
[3] = Apparent oral clearance in pulmonary tuberculosis patient in Sequential 0 order and first order model; format: ADME, organism-based; settings: human, in vivo
[4] = Apparent oral clearance in pulmonary tuberculosis patient in first order model; format: ADME, organism-based; settings: human, in vivo
Homo sapiens [5] = organism: Homo sapiens; assay: Absorption rate constant in pulmonary tuberculosis patient in first order and lag time model; format: ADME, organism-based; settings: in vivo
Homo sapiens [6] = assay: AUC (0 to infinity) in indian pulmonary tuberculosis patient coinjected with HIV at 450 mg/day, po; format: ADME, organism-based, Plasma; parameters: dose 450 mg/day, time infinity, route oral; settings: in vivo
Homo sapiens [7] = assay: AUC (0 to 24 hrs) in indonesian pulmonary tuberculosis patient at 450 mg/day, po; format: ADME, organism-based, Plasma; parameters: dose 450 mg/day, time < 24 hr, route oral; settings: in vivo
Homo sapiens [8] = assay: AUC (0 to 24 hrs) in south african pulmonary tuberculosis patient with body weight <=50 kg at 450 mg/day, po; format: ADME, organism-based, Plasma; parameters: time < 24 hr, dose 450 mg/day, route oral; settings: in vivo
[9] = Apparent oral clearance in pulmonary tuberculosis patient in transit compartment model; format: ADME, organism-based; settings: human, in vivo
Homo sapiens [10] = assay: AUC (0 to 10 hrs) in north american pulmonary tuberculosis patient coinjected with HIV with body weight >50 kg at 600 mg/day, po; format: ADME, organism-based, Plasma; parameters: time < 10 hr, dose 600 mg/day, route oral; settings: in vivo
Homo sapiens [11] = assay: AUC (0 to 12 hrs) in kenyan pulmonary tuberculosis patient with body weight >45 kg at 600 mg/day, po; format: ADME, organism-based, Plasma; parameters: dose 600 mg/day, time < 12 hr, route oral; settings: in vivo
Homo sapiens [12] = assay: AUC (0 to 24 hrs) in indonesian pulmonary tuberculosis patient at 600 mg/day, po; format: ADME, organism-based, Plasma; parameters: time < 24 hr, dose 600 mg/day, route oral; settings: in vivo
Homo sapiens [13] = assay: AUC (0 to 10 hrs) in north american pulmonary tuberculosis patient coinjected with HIV with body weight <=50 kg at 450 mg/day, po; format: ADME, organism-based, Plasma; parameters: time < 10 hr, dose 450 mg/day, route oral; settings: in vivo
Homo sapiens [14] = assay: AUC (0 to 24 hrs) in south african pulmonary tuberculosis patient with body weight >50 kg at 600 mg/day, po; format: ADME, organism-based, Plasma; parameters: time < 24 hr, dose 600 mg/day, route oral; settings: in vivo
Homo sapiens [15] = organism: Homo sapiens; assay: Absorption rate constant in pulmonary tuberculosis patient in first order model; format: ADME, organism-based; settings: in vivo
Homo sapiens [16] = assay: AUC (0 to infinity) in indian pulmonary tuberculosis patient at 450 mg/day, po; format: ADME, organism-based, Plasma; parameters: dose 450 mg/day, route oral, time infinity; settings: in vivo
Homo sapiens [17] = assay: AUC (0 to 12 hrs) in german pulmonary tuberculosis patient at 600 mg/day, po; format: ADME, organism-based, Plasma; parameters: dose 600 mg/day, time < 12 hr, route oral; settings: in vivo
Homo sapiens [18] = organism: Homo sapiens; assay: Absorption rate constant in pulmonary tuberculosis patient in transit compartment model; format: ADME, organism-based; settings: in vivo
Homo sapiens [19] = assay: AUC (0 to 12 hrs) in kenyan pulmonary tuberculosis patient coinjected with HIV with body weight <=45 kg at 450 mg/day, po; format: ADME, organism-based, Plasma; parameters: time < 12 hr, dose 450 mg/day, route oral; settings: in vivo
[20] = Apparent volume of distribution in pulmonary tuberculosis patient in transit compartment model; format: ADME, organism-based; settings: human, in vivo; read-out: Vz
[21] = Apparent oral clearance in pulmonary tuberculosis patient in first order and lag time model; format: ADME, organism-based; settings: human, in vivo
[22] = Apparent volume of distribution in pulmonary tuberculosis patient in first order model; format: ADME, organism-based; settings: human, in vivo; read-out: Vz
Homo sapiens [23] = assay: AUC (0 to 12 hrs) in kenyan pulmonary tuberculosis patient with body weight <=45 kg at 450 mg/day, po; format: ADME, organism-based, Plasma; parameters: time < 12 hr, dose 450 mg/day, route oral; settings: in vivo
[24] = Apparent volume of distribution in pulmonary tuberculosis patient in first order and lag time model; format: ADME, organism-based; settings: human, in vivo; read-out: Vz
Homo sapiens [25] = organism: Homo sapiens; assay: Absorption rate constant in pulmonary tuberculosis patient in Sequential 0 order and first order model; format: ADME, organism-based; settings: in vivo
[26] = Apparent volume of distribution in pulmonary tuberculosis patient in Sequential 0 order and first order model; format: ADME, organism-based; settings: human, in vivo; read-out: Vz

Molecule `CO[C@H]1/C=C/O[C@@]2(C)Oc3c(C)c(O)c4c(O)c(c(/C=N/N5CCN(C)CC5)c(O)c4c3C2=O)NC(=O)/C(C)=C\C=C\[C@H](C)[C@H](O)[C@@H](C)[C@@H](O)[C@@H](C)[C@H](OC(C)=O)[C@@H]1C` [RIFAMPIN] has an MTT (Homo sapiens [1]) of 0.424 h, an AUC (Homo sapiens [2]) of 19600 ng·h/mL and a CL/F [3] of 320 mL/min. The CL/F [4] was 323 mL/min, the Ka (Homo sapiens [5]) was 1.64 L/h and the AUC (Homo sapiens [6]) was 28200 ng·h/mL. The AUC (Homo sapiens [7]) was 48500 ng·h/mL, the AUC (Homo sapiens [8]) was 30700 ng·h/mL and the CL/F [9] was 320 mL/min. It also gave an AUC (Homo sapiens [10]) of 30100 ng·h/mL, an AUC (Homo sapiens [11]) of 23100 ng·h/mL and an AUC (Homo sapiens [12]) of 79700 ng·h/mL. For the same molecule, the AUC (Homo sapiens [13]) was 30100 ng·h/mL, the AUC (Homo sapiens [14]) was 30700 ng·h/mL and the Ka (Homo sapiens [15]) was 1.61 L/h. For the same molecule, the AUC (Homo sapiens [16]) was 44600 ng·h/mL, the AUC (Homo sapiens [17]) was 60300 ng·h/mL and the Ka (Homo sapiens [18]) was 1.15 L/h. The AUC (Homo sapiens [19]) was 19600 ng·h/mL, the Vd [20] was 53.2 L and the CL/F [21] was 337 mL/min. It also gave a Vd [22] of 52.8 L, an AUC (Homo sapiens [23]) of 23100 ng·h/mL and a Vd [24] of 53.4 L. The Ka (Homo sapiens [25]) was 1.23 L/h and the Vd [26] was 51.5 L.
